Active and inactive are the calls of the source. The rule behind the calls is not given here.

The target in this test is T1, 2-5A-dependent ribonuclease (Homo sapiens) (UniProt Q05823).
T1 sequence (whole entry): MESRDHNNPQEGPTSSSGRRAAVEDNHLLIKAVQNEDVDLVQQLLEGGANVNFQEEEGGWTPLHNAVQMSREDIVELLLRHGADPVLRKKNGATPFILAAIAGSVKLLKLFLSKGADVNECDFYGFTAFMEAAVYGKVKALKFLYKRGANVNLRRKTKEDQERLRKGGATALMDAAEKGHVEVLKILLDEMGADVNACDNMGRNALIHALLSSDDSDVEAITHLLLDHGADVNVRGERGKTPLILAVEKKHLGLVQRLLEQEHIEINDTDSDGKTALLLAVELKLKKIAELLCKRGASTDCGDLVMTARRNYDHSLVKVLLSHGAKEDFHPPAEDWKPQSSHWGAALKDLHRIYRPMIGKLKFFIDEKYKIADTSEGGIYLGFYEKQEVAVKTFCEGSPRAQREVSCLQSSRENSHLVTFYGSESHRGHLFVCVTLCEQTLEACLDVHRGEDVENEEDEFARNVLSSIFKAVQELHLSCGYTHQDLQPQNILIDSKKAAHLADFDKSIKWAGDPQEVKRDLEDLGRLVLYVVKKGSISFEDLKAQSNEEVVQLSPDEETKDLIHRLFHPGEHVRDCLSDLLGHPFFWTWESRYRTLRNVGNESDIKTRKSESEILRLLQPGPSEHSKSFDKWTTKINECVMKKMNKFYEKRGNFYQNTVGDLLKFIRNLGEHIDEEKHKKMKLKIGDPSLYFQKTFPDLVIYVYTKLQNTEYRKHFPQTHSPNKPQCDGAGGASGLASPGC
Kind of test: Antagonist activity at human RNase L expressed in Escherichia coli BL21 (DE3) cells assessed as RNA cleavage using Cy5-C11-rUU-C7-BHQ2 as substrate by FRET assay in presence of natural activator pAAAA. It is filed as functional.
In the case of `Nc1ncnc2c1ncn2[C@@H]1O[C@H](COP(=O)(O)O[C@@H]2[C@H](O)[C@@H](COP(=O)(O)CO[C@@H]3[C@H](O)[C@@H](COP(=O)(O)CO[C@@H]4[C@H](O)[C@@H](COP(=O)(O)O)O[C@H]4n4cnc5c(N)ncnc54)O[C@H]3n3cnc4c(N)ncnc43)O[C@H]2n2cnc3c(N)ncnc32)[C@@H](O)[C@H]1O`, the inhibition entry was “inactive”.

With `Nc1ncnc2c1ncn2[C@@H]1O[C@H](COP(=O)(O)CO[C@H]2[C@H](O)[C@@H](COP(=O)(O)CO[C@H]3[C@H](O)[C@@H](COP(=O)(O)CO[C@H]4[C@H](O)[C@@H](COP(=O)(O)O)O[C@H]4n4cnc5c(N)ncnc54)O[C@H]3n3cnc4c(N)ncnc43)O[C@H]2n2cnc3c(N)ncnc32)[C@@H](O)[C@H]1O`, the inhibition result was “inactive”.

Take `Nc1ncnc2c1ncn2[C@@H]1O[C@H](COCP(=O)(O)O[C@@H]2[C@H](O)[C@@H](COP(=O)(O)O[C@@H]3[C@@H](O)[C@@H](COCP(=O)(O)O[C@@H]4[C@@H](O)[C@@H](COCP(=O)(O)O)O[C@H]4n4cnc5c(N)ncnc54)O[C@H]3n3cnc4c(N)ncnc43)O[C@H]2n2cnc3c(N)ncnc32)[C@H](O)[C@H]1O`: the inhibition result was “inactive”.

Regarding `Nc1ncnc2c1ncn2[C@@H]1O[C@H](COP(=O)(O)CO[C@@H]2[C@@H](O)[C@@H](COP(=O)(O)CO[C@@H]3[C@@H](O)[C@@H](COP(=O)(O)O[C@@H]4[C@H](O)[C@@H](COP(=O)(O)O)O[C@H]4n4cnc5c(N)ncnc54)O[C@H]3n3cnc4c(N)ncnc43)O[C@H]2n2cnc3c(N)ncnc32)[C@@H](O)[C@H]1O`, the inhibition entry is “inactive”.

On to `Nc1ncnc2c1ncn2[C@@H]1O[C@H](COP(=O)(O)O[C@H]2[C@H](O)[C@@H](COCP(=O)(O)O[C@H]3[C@H](O)[C@@H](COCP(=O)(O)O[C@H]4[C@H](O)[C@@H](COCP(=O)(O)O)O[C@H]4n4cnc5c(N)ncnc54)O[C@H]3n3cnc4c(N)ncnc43)O[C@H]2n2cnc3c(N)ncnc32)[C@@H](O)[C@H]1O`, for which the inhibition result was “inactive”.

For the compound `Nc1ncnc2c1ncn2[C@@H]1O[C@H](COCP(=O)(O)O[C@@H]2[C@H](O)[C@@H](COCP(=O)(O)O[C@@H]3[C@H](O)[C@@H](COP(=O)(O)O[C@@H]4[C@H](O)[C@@H](COCP(=O)(O)O)O[C@H]4n4cnc5c(N)ncnc54)O[C@H]3n3cnc4c(N)ncnc43)O[C@H]2n2cnc3c(N)ncnc32)[C@@H](O)[C@H]1O`, the inhibition entry is “inactive”.

With `Nc1ncnc2c1ncn2[C@@H]1O[C@H](COP(=O)(O)O[C@@H]2[C@@H](O)[C@@H](COCP(=O)(O)O[C@@H]3[C@@H](O)[C@@H](COCP(=O)(O)O[C@@H]4[C@@H](O)[C@@H](COCP(=O)(O)O)O[C@H]4n4cnc5c(N)ncnc54)O[C@H]3n3cnc4c(N)ncnc43)O[C@H]2n2cnc3c(N)ncnc32)[C@@H](O)[C@H]1O`, the inhibition result is “inactive”.

Consider `Nc1ncnc2c1ncn2[C@@H]1O[C@H](COCP(=O)(O)O[C@@H]2[C@@H](O)[C@@H](COCP(=O)(O)O[C@@H]3[C@H](O)[C@@H](COP(=O)(O)O[C@@H]4[C@@H](O)[C@@H](COCP(=O)(O)O)O[C@H]4n4cnc5c(N)ncnc54)O[C@H]3n3cnc4c(N)ncnc43)O[C@H]2n2cnc3c(N)ncnc32)[C@H](O)[C@H]1O`, for which the inhibition entry is “inactive”.

Turning to `Nc1ncnc2c1ncn2[C@@H]1O[C@H](COP(=O)(O)CO[C@@H]2[C@H](O)[C@@H](COP(=O)(O)CO[C@@H]3[C@H](O)[C@@H](COP(=O)(O)O[C@@H]4[C@H](O)[C@@H](COP(=O)(O)O)O[C@H]4n4cnc5c(N)ncnc54)O[C@H]3n3cnc4c(N)ncnc43)O[C@H]2n2cnc3c(N)ncnc32)[C@@H](O)[C@H]1O`, the inhibition entry was “inactive”.

`Nc1ncnc2c1ncn2[C@@H]1O[C@H](COCP(=O)(O)O[C@@H]2[C@H](O)[C@@H](COCP(=O)(O)O[C@@H]3[C@H](O)[C@@H](COCP(=O)(O)O[C@@H]4[C@H](O)[C@@H](COP(=O)(O)O)O[C@H]4n4cnc5c(N)ncnc54)O[C@H]3n3cnc4c(N)ncnc43)O[C@H]2n2cnc3c(N)ncnc32)[C@@H](O)[C@H]1O`: the inhibition entry was “inactive”.

`Nc1ncnc2c1ncn2[C@@H]1O[C@H](COP(=O)(O)CO[C@H]2[C@H](O)[C@@H](COP(=O)(O)CO[C@H]3[C@H](O)[C@@H](COP(=O)(O)O[C@@H]4[C@H](O)[C@@H](COP(=O)(O)O)O[C@H]4n4cnc5c(N)ncnc54)O[C@H]3n3cnc4c(N)ncnc43)O[C@H]2n2cnc3c(N)ncnc32)[C@@H](O)[C@H]1O`: the inhibition entry was “inactive”.

Regarding `Nc1ncnc2c1ncn2[C@@H]1O[C@H](COP(=O)(O)CO[C@@H]2[C@@H](O)[C@@H](COP(=O)(O)O[C@@H]3[C@H](O)[C@@H](COP(=O)(O)CO[C@@H]4[C@@H](O)[C@@H](COP(=O)(O)O)O[C@H]4n4cnc5c(N)ncnc54)O[C@H]3n3cnc4c(N)ncnc43)O[C@H]2n2cnc3c(N)ncnc32)[C@@H](O)[C@H]1O`, the inhibition result is “inactive”.

Turning to `Nc1ncnc2c1ncn2[C@@H]1O[C@H](COP(=O)(O)O[C@@H]2[C@@H](O)[C@@H](COCP(=O)(O)O[C@@H]3[C@H](O)[C@@H](COP(=O)(O)O[C@@H]4[C@@H](O)[C@@H](COCP(=O)(O)O)O[C@H]4n4cnc5c(N)ncnc54)O[C@H]3n3cnc4c(N)ncnc43)O[C@H]2n2cnc3c(N)ncnc32)[C@@H](O)[C@H]1O`, the inhibition result was “inactive”.

As for `Nc1ncnc2c1ncn2[C@@H]1O[C@H](COP(=O)(O)O[C@@H]2[C@H](O)[C@@H](COP(=O)(O)O[C@@H]3[C@H](O)[C@@H](COCP(=O)(O)O[C@@H]4[C@H](O)[C@@H](COCP(=O)(O)O)O[C@H]4n4cnc5c(N)ncnc54)O[C@H]3n3cnc4c(N)ncnc43)O[C@H]2n2cnc3c(N)ncnc32)[C@@H](O)[C@H]1O`, the inhibition result was “inactive”.

As for `Nc1ncnc2c1ncn2[C@@H]1O[C@H](COCP(=O)(O)O[C@H]2[C@H](O)[C@@H](COCP(=O)(O)O[C@@H]3[C@H](O)[C@@H](COP(=O)(O)O[C@H]4[C@H](O)[C@@H](COCP(=O)(O)O)O[C@H]4n4cnc5c(N)ncnc54)O[C@H]3n3cnc4c(N)ncnc43)O[C@H]2n2cnc3c(N)ncnc32)[C@@H](O)[C@@H]1O`, the inhibition entry is “inactive”.

Regarding `Nc1ncnc2c1ncn2[C@@H]1O[C@H](COP(=O)(O)O[C@H]2[C@H](O)[C@@H](COCP(=O)(O)O[C@H]3[C@H](O)[C@@H](COCP(=O)(O)O[C@@H]4[C@H](O)[C@@H](COP(=O)(O)O)O[C@H]4n4cnc5c(N)ncnc54)O[C@H]3n3cnc4c(N)ncnc43)O[C@H]2n2cnc3c(N)ncnc32)[C@@H](O)[C@H]1O`, the inhibition result is “inactive”.

With `Nc1ncnc2c1ncn2[C@@H]1O[C@H](COCP(=O)(O)O[C@@H]2[C@H](O)[C@@H](COP(=O)(O)O[C@H]3[C@H](O)[C@@H](COCP(=O)(O)O[C@@H]4[C@H](O)[C@@H](COP(=O)(O)O)O[C@H]4n4cnc5c(N)ncnc54)O[C@H]3n3cnc4c(N)ncnc43)O[C@H]2n2cnc3c(N)ncnc32)[C@@H](O)[C@@H]1O`, the inhibition entry is “inactive”.

In the case of `Nc1ncnc2c1ncn2[C@@H]1O[C@H](COCP(=O)(O)O[C@@H]2[C@H](O)[C@@H](COP(=O)(O)O[C@@H]3[C@H](O)[C@@H](COP(=O)(O)O[C@H]4[C@H](O)[C@@H](COCP(=O)(O)O)O[C@H]4n4cnc5c(N)ncnc54)O[C@H]3n3cnc4c(N)ncnc43)O[C@H]2n2cnc3c(N)ncnc32)[C@@H](O)[C@@H]1O`, the inhibition entry is “inactive”.
